Measured values published in ChEMBL document CHEMBL4706545, “Antiproliferative effect of mitochondria-targeting allobetulin 1,2,3-triazolium salt derivatives and their mechanism of inducing apoptosis of cancer cells” (Eur J Med Chem, 2020).
Activity calls are given as the source filed them. The rule behind the calls is not given here.

Columns and labels:
SGC-7901 [1] = assay: Induction of apoptosis in human SGC-7901 cells assessed as nuclear fragmentation at 1 to 4 uM incubated for 48 hrs by Hoechst staining based fluorescence microscopic analysis; type: functional, cell-based; conditions: dose 1-4 µM
SGC-7901 [2] = assay: Induction of apoptosis in human SGC-7901 cells assessed as concentrated chromatin at 1 to 4 uM incubated for 48 hrs by Hoechst staining based fluorescence microscopic analysis; type: functional, cell-based; conditions: dose 1-4 µM
SGC-7901 [3] = assay: Induction of apoptosis in human SGC-7901 cells assessed as late apoptotic cells at 1 uM incubated for 48 hrs by annexin-V-FITC and PI staining based fluorescence microscopic analysis (reference value: 3.87 %); type: functional
SGC-7901 [4] = assay: Induction of apoptosis in human SGC-7901 cells assessed as late apoptotic cells at 2 uM incubated for 48 hrs by annexin-V-FITC and PI staining based fluorescence microscopic analysis (reference value: 3.87 %); type: functional
SGC-7901 [5] = assay: Induction of ROS generation in human SGC-7901 cells incubated for 48 hrs by DCFH-DA staining based fluorescence microscopic analysis; type: functional, cell-based; conditions: dose 1-4 µM
SGC-7901 [6] = assay: Induction of ROS-mediated apoptosis in human SGC-7901 cells assessed as late apoptotic cells at 2 uM incubated for 48 hrs by annexin V-PE and 7-AAD staining based flow cytometry analysis (reference value: 3.82 %); type: functional
SGC-7901 [7] = assay: Induction of ROS-mediated apoptosis in human SGC-7901 cells assessed as late apoptotic cells at 4 uM incubated for 48 hrs by annexin V-PE and 7-AAD staining based flow cytometry analysis (reference value: 3.82 %); type: functional
SGC-7901 [8] = assay: Induction of ROS-mediated apoptosis in human SGC-7901 cells assessed as viable cells at 1 uM incubated for 48 hrs in presence of NAC by annexin V-PE and 7-AAD staining based flow cytometry analysis (reference value: 94.8 %); type: functional; conditions: read-out: Activity
SGC-7901 [9] = assay: Induction of ROS-mediated apoptosis in human SGC-7901 cells assessed as late apoptotic cells at 1 uM incubated for 48 hrs in presence of NAC by annexin V-PE and 7-AAD staining based flow cytometry analysis (reference value: 3.45 %); type: functional
SGC-7901 [10] = assay: Induction of ROS-mediated apoptosis in human SGC-7901 cells assessed as late apoptotic cells at 2 uM incubated for 48 hrs in presence of NAC by annexin V-PE and 7-AAD staining based flow cytometry analysis (reference value: 3.45 %); type: functional
SGC-7901 [11] = assay: Induction of cell cycle arrest in human SGC-7901 cells assessed as accumulation in S phase at 1 uM incubated for 48 hrs by PI staining based flow cytometry analysis (reference value: 31.13 %); type: functional
SGC-7901 [12] = assay: Induction of cell cycle arrest in human SGC-7901 cells assessed as accumulation in G0/G1 phase at 2 uM incubated for 48 hrs by PI staining based flow cytometry analysis (reference value: 57.39 %); type: functional
SGC-7901 [13] = assay: Induction of cell cycle arrest in human SGC-7901 cells assessed as accumulation in G2/M phase at 4 uM incubated for 48 hrs by PI staining based flow cytometry analysis (reference value: 11.48 %); type: functional
ECa-109 cell line [14] = assay: Induction of ROS-mediated apoptosis in human ECa-109 cells assessed as viable cells at 4 uM incubated for 48 hrs in presence of NAC by annexin V-PE and 7-AAD staining based flow cytometry analysis (reference value: 94 %); type: functional; conditions: read-out: Activity
ECa-109 cell line [15] = assay: Induction of apoptosis in human ECa-109 cells assessed as necrotic cells at 4 uM incubated for 48 hrs by annexin-V-FITC and PI staining based fluorescence microscopic analysis (reference value: 1.19 %); type: functional
ECa-109 cell line [16] = assay: Induction of mitochondrial membrane potential disruption in human ECa-109 cells incubated for 48 hrs by JC-1 dye based flow cytometry analysis; conditions: Mitochondria, dose 1-4 µM
ECa-109 cell line [17] = assay: Induction of ROS-mediated apoptosis in human ECa-109 cells assessed as late apoptotic cells at 1 uM incubated for 48 hrs by annexin V-PE and 7-AAD staining based flow cytometry analysis (reference value: 3.89 %); type: functional
ECa-109 cell line [18] = assay: Induction of ROS-mediated apoptosis in human ECa-109 cells assessed as necrotic cells at 2 uM incubated for 48 hrs by annexin V-PE and 7-AAD staining based flow cytometry analysis (reference value: 0.729 %); type: functional
ECa-109 cell line [19] = assay: Induction of ROS-mediated apoptosis in human ECa-109 cells assessed as necrotic cells at 1 uM incubated for 48 hrs in presence of NAC by annexin V-PE and 7-AAD staining based flow cytometry analysis (reference value: 1.09 %); type: functional
ECa-109 cell line [20] = assay: Induction of ROS-mediated apoptosis in human ECa-109 cells assessed as viable cells at 2 uM incubated for 48 hrs in presence of NAC by annexin V-PE and 7-AAD staining based flow cytometry analysis (reference value: 94 %); type: functional; conditions: read-out: Activity
ECa-109 cell line [21] = assay: Induction of ROS-mediated apoptosis in human ECa-109 cells assessed as early apoptotic cells at 4 uM incubated for 48 hrs in presence of NAC by annexin V-PE and 7-AAD staining based flow cytometry analysis (reference value: 1.90 %); type: functional
ECa-109 cell line [22] = assay: Induction of cell cycle arrest in human ECa-109 cells assessed as accumulation in G2/M phase at 1 uM incubated for 48 hrs by PI staining based flow cytometry analysis (reference value: 8.39 %); type: functional
ECa-109 cell line [23] = assay: Induction of cell cycle arrest in human ECa-109 cells assessed as accumulation in G0/G1 phase at 2 uM incubated for 48 hrs by PI staining based flow cytometry analysis (reference value: 52.28 %); type: functional
ECa-109 cell line [24] = assay: Induction of cell cycle arrest in human ECa-109 cells assessed as accumulation in S phase at 2 uM incubated for 48 hrs by PI staining based flow cytometry analysis (reference value: 39.33 %); type: functional
ECa-109 cell line [25] = assay: Induction of apoptosis in human ECa-109 cells assessed as decrease in caspase-8 incubated for 48 hrs by Western blot analysis; type: functional, cell-based; conditions: dose 1-4 µM
ECa-109 cell line [26] = assay: Induction of apoptosis in human ECa-109 cells assessed as upregulation of Bax incubated for 48 hrs by Western blot analysis; type: functional, cell-based; conditions: dose 1-4 µM

SMILES: C[n+]1nn(Cc2c(F)cccc2Cl)c2c1C[C@]1(C)[C@H]3CC[C@@H]4[C@H]5[C@H]6OC[C@@]5(CCC6(C)C)CC[C@@]4(C)[C@]3(C)CC[C@H]1C2(C)C.[I-]
- Activity (SGC-7901 [1]): Active
- Activity (SGC-7901 [2]): Active
- Activity (SGC-7901 [3]): 4.79%
- Activity (SGC-7901 [4]): 8.46%
- Activity (SGC-7901 [5]): Dose-dependent effect
- Activity (SGC-7901 [6]): 12.3%
- Activity (SGC-7901 [7]): 99.6%
- viability at 1 µM (SGC-7901 [8]): 87.7%
- Activity (SGC-7901 [9]): 4.96%
- Activity (SGC-7901 [10]): 8.6%
- Activity (SGC-7901 [11]): 14.19%
- Activity (SGC-7901 [12]): 74.64%
- Activity (SGC-7901 [13]): 18.35%

SMILES: COc1ccccc1Cn1n[n+](C)c2c1C(C)(C)[C@@H]1CC[C@]3(C)[C@H](CC[C@@H]4[C@H]5[C@H]6OC[C@@]5(CCC6(C)C)CC[C@]43C)[C@@]1(C)C2.[I-]
- viability at 4 µM (ECa-109 cell line [14]): 13.8%
- Activity (ECa-109 cell line [15]): 3.58%
- Activity (ECa-109 cell line [16]): Dose-dependent effect
- Activity (ECa-109 cell line [17]): 18.6%
- Activity (ECa-109 cell line [18]): 4.87%
- Activity (ECa-109 cell line [19]): 2.07%
- viability at 2 µM (ECa-109 cell line [20]): 66.2%
- Activity (ECa-109 cell line [21]): 3.5%
- Activity (ECa-109 cell line [22]): 10.81%
- Activity (ECa-109 cell line [23]): 42.96%
- Activity (ECa-109 cell line [24]): 40.19%
- Activity (ECa-109 cell line [25]): Dose-dependent effect
- Activity (ECa-109 cell line [26]): Dose-dependent effect
